The nature of data set [1]: Irritation at the injection site. Conditions: rabbits. Format: in vivo. From the text:
A still further important difference is the comparative irritation at the injection site of pentazocine and the compound of Example 1B. The threshold irritation concentration of the latter in rabbits was 2% and of pentazocine, 0.5%.

Data set [2] has as its system phenazocine (agonist effect in rat tail-flick). Description: Tail-flick antagonist test against phenazocine. Conditions: for ED50: Rattus norvegicus, sc, 10 min, read-out: Tail-flick Antagonist AD50.
Data set [3] relates to acetylcholine-induced writhing. As to the kind of experiment: Anti-acetylcholine writhing test (analgesia). It counts as in vivo, mice. Conditions: for ED50: Mus musculus, 20 min, mice; for Oral:Parenteral Potency Ratio: peroral ED50 / subcutaneous ED50, anti-acetylcholine test. The method, then: In this test the ability of test compounds to prevent acetylcholine-induced writhing in mice is determined. The following is an adaptation of the method of Collier and co-workers (Brit. J. Pharmacol. Chemother., 32, 295(1968)) by Anne K. Pierson. Anti-acetylcholine Writhing Test
This response has also been called writhing. Animals are pretreated with test compounds (20 minutes for both subcutaneous and oral routes) and observed for two minutes immediately following the administration of acetylcholine. Mice not responding during the two-minute observation period are scored protected while those responding one or more times are scored not protected. Test compounds are screened at doses of 75 and 25 milligrams per kilogram subcutaneously or 150 and 50 mlligrams per kilogram orally. […] ED50 values for active compounds are estimated by probit analysis of quantal scores for 4 or more dosage levels using 15 animals per dose. Vehicle-pretreated control animals are tested concurrently with each run of 15 experimental animals.

The nature of data set [4]: Intravenous administration in the dog (unconsciousness, heart rate, blood pressure). Format: in vivo.
For data set [5], the system named is tail-flick response to thermal stimulus. As to the kind of experiment: Tail-flick agonist test. It counts as in vivo. Conditions: rats, subcutaneous; for Tail-flick Agonist ED50: 30 minutes after injection. How it is done:
Rats normally respond to a thermal stimulus applied to the tail by flicking their tails out from under the heat source. The intensity of the stimulus utilized is one which produces control response-times (CRT) of 2-4 seconds. Experimental response-times (ERT) are determined 30 minutes after subcutaneous injections. […] Therefore, the maximum possible increase (MPI) in response-time for any given animal is 20 minus the CRT. The average % effect, or % of the maximum possible increase (%MPI) obtained after any given test compound treatment is calculated by the formula [formula] […] Exptl.

Data set [6] is described as follows: Tests for analgesia, comparison with cyclazocine and pentazocine. Format: in vivo. Conditions: both subcutaneously and orally. From the text:
The compound of Example 1B having in the free base form the structural formula [drawing 14] is the preferred species of this invention and the biological properties thereof have been carefully compared with those of pentazocine and cyclazocine.

Where [7] appears, read: po, peroral, read-out: Peroral ED50, anti-acetylcholine test.
Setting [8] is: sc, subcutaneous, 20 minutes pretreatment, read-out: ED50, anti-acetylcholine writhing test.

Where a name gives a salt, the structure may show the parent alone. Read-outs that look alike come from different tables or passages of the source.

Regarding `C[C@H]1[C@H]2Cc3ccc(N)cc3[C@]1(C)CCN2CC1CC1` (relative stereo) [Example 1B, 8-amino-3-(cyclopropylmethyl)-1,2,3,4,5,6-hexahydro-cis-6,11-dimethyl-2,6-methano-3-benzazocine dihydrochloride], the Threshold irritation concentration in data set [1] is 2%. Moreover, the ED50 in data set [2] came out at 2.7 mg/kg. Moreover, the ED50 in data set [3] (setting [7]) worked out at 3.2 mg/kg. Further, the ED50 in data set [3] (setting [8]) was found to be 0.8 mg/kg. Also, in data set [3], the “Oral:Parenteral Potency Ratio” value was 4. Also, in data set [4], the “Heart rate and blood pressure” value is listed as “without compromising heart rate or blood pressure”; the Salivation and tremors entry is “Salivation and tremors were observed”; the Unconsciousness entry is “produced unconsciousness equivalent to a light plane of anesthesia”.
On to `C[C@H]1[C@H]2Cc3ccc(NCC4CC4)cc3[C@]1(C)CCN2CC1CC1` (relative stereo) [Example 2E, 3-(cyclopropylmethyl)-8-(cyclopropylmethylamino)-1,2,3,4,5,6-hexahydro-cis-6,11-dimethyl-2,6-methano-3-benzazocine hydrochloride], for which the ED50 in data set [2] amounted to 8 mg/kg; in data set [3] (setting [8]), 0.7 mg/kg.
Take `CNc1ccc2c(c1)[C@]1(C)CCN(CC3CC3)[C@H](C2)[C@@H]1C` (relative stereo) [Example 3B, 3-(cyclopropylmethyl)-1,2,3,4,5,6-hexahydro-cis-6,11-dimethyl-8-(methylamino)-2,6-methano-3-benzazocine dihydrochloride ethanolate hydrate]: the figures for the ED50 in data set [2] and in data set [3] (setting [8]) were 1.3 mg/kg and 0.44 mg/kg, respectively. The “Tail-flick Agonist % MPI” value in data set [5] (at 120 mg./kg.) came out at 35%.
Take `C[C@H]1[C@H]2Cc3ccc(N(C)C)cc3[C@]1(C)CCN2CC1CC1` (relative stereo) [Example 4F, 3-cyclopropylmethyl-8-dimethylamino-cis-6,11-dimethyl-1,2,3,4,5,6-hexahydro-2,6-methano-3-benzazocine dihydrochloride]: the “Tail-flick Antagonist % Antagonism” value is given as 30% in data set [2] (rats, subcutaneous, against phenazocine, at 10 mg./kg.) and 32% in data set [2] (rats, subcutaneous, against phenazocine, at 80 mg./kg.). The ED50 in data set [3] (setting [8]) was 0.79 mg/kg. For the same compound, in data set [5] (at 60 mg./kg.), the “Tail-flick Agonist % MPI” value turned out to be 43%.
In the case of `CC(C)CN1CC[C@@]2(C)c3cc(N)ccc3C[C@@H]1[C@@H]2C` (relative stereo) [Example 5C, 8-amino-1,2,3,4,5,6-hexahydro-3-isobutyl-cis-6,11-dimethyl-2,6-methano-3-benzazocine dihydrochloride], the results for the ED50 in data set [2] and in data set [3] (setting [8]) were 9.4 mg/kg and 1.5 mg/kg, respectively.
In the case of `CCCN1CC[C@@]2(C)c3cc(N)ccc3C[C@@H]1[C@@H]2C` (relative stereo) [Example 6C, 8-amino-cis-6,11-dimethyl-1,2,3,4,5,6-hexahydro-3-propyl-2,6-methano-3-benzazocine dihydrochloride sesquihydrate], the ED50 in data set [2] came out at 2 mg/kg; in data set [3] (setting [8]), 5.6 mg/kg. Besides, the “Tail-flick Agonist ED50” value in data set [5] was “Inactive at 60”.
As for `C[C@H]1[C@H]2Cc3ccc(NCc4ccccc4)cc3[C@]1(C)CCN2CC1CC1` (relative stereo) [Example 7, 3-(cyclopropylmethyl)-1,2,3,4,5,6-hexahydro-cis-6,11-dimethyl-8-benzylamino-2,6-methano-3-benzazocine dihydrochloride], the ED50 in data set [2] amounted to 1 mg/kg; in data set [3] (setting [8]) it was 1.6 mg/kg.
For `C=CCN1CC[C@@]2(C)c3cc(N)ccc3C[C@@H]1[C@@H]2C` (relative stereo) [Example 8C, 8-amino-1,2,3,4,5,6-hexahydro-cis-6,11-dimethyl-3-(2-propenyl)-2,6-methano-3-benzazocine dihydrochloride], in that order: 1.5 mg/kg and 2.5 mg/kg.
With `CCNc1ccc2c(c1)[C@]1(C)CCN(CC3CC3)[C@H](C2)[C@@H]1C` (relative stereo) [Example 9B, 3-(cyclopropylmethyl)-8-(ethylamino)-1,2,3,4,5,6-hexahydro-cis-6,11-dimethyl-2,6-methano-3-benzazocine], the results for the ED50 in data set [2] and in data set [3] (setting [8]) were 10 mg/kg and 1.3 mg/kg, respectively. Moreover, the “Tail-flick Antagonist % Antagonism” value in data set [2] (rats, subcutaneous, against phenazocine, at 80 mg./kg., different sample) amounted to 19%. The “Tail-flick Agonist % MPI” value stood at 25% in data set [5] (at 60 mg./kg.) and 21% in data set [5] (at 120 mg./kg., different sample).
As for `CCCNc1ccc2c(c1)[C@]1(C)CCN(CC3CC3)[C@H](C2)[C@@H]1C` (relative stereo) [Example 10B, 3-(cyclopropylmethyl)-1,2,3,4,5,6-hexahydro-cis-6,11-dimethyl-8-(propylamino)-2,6-methano-3-benzazocine], the “Tail-flick Antagonist % Antagonism” value is recorded as 32% in data set [2] (rats, subcutaneous, against phenazocine, at 5 mg./kg., different sample) and 31% in data set [2] (rats, subcutaneous, against phenazocine, at 40 mg./kg.). Also, the ED50 in data set [3] (setting [8]) was found to be 1.2 mg/kg.
On to `CCCCNc1ccc2c(c1)[C@]1(C)CCN(CC3CC3)[C@H](C2)[C@@H]1C` (relative stereo) [Example 11B, 8-(butylamino)-3-(cyclopropylmethyl)-1,2,3,4,5,6-hexahydro-cis-6,11-dimethyl-2,6-methano-3-benzazocine], for which the ED50 in data set [3] (setting [8]) is 1 mg/kg.
In the case of `CC[C@H]1[C@H]2Cc3ccc(N)cc3[C@]1(CC)CCN2CC1CC1` (relative stereo) [Example 12H, 8-amino-3-(cyclopropylmethyl)-cis-6,11-diethyl-1,2,3,4,5,6-hexahydro-2,6-methano-3-benzazocine dihydrochloride], the ED50 is 3.8 mg/kg in data set [2] and 1.3 mg/kg in data set [3] (setting [8]).
Turning to `C[C@H]1[C@H]2Cc3ccc(N)cc3[C@]1(C)CCN2C` (relative stereo) [Formula G, α-2'-amino-2,5,9-trimethyl-6,7-benzomorphan, reference compound], the Narcotic antagonist activity result in data set [2] (rat, in vivo) is “not a narcotic antagonist”. For the same compound, the “Tail-flick Antagonist AD50” value in data set [2] (rats, subcutaneous, against phenazocine) was “Inactive at 80”. Further, the ED50 in data set [3] (setting [8]) turned out to be 7.5 mg/kg. Also, the “Tail-flick Agonist ED50” value in data set [5] is “Inactive at 120”.
On to `C[C@H]1[C@H]2Cc3ccc(O)cc3[C@]1(C)CCN2CC1CC1` (relative stereo) [cyclazocine, reference compound], for which the ED50 in data set [2] was determined as 0.028 mg/kg; in data set [3] (setting [7]), 5.3 mg/kg; in data set [3] (setting [8]) it was 0.15 mg/kg. Also, the “Oral:Parenteral Potency Ratio” value in data set [3] stood at 35. In data set [4], the “Heart rate and blood pressure” value was “increases in heart rate and blood pressure”. The Unconsciousness result in data set [4] is listed as “produced unconsciousness”. In addition, the “Tail-flick Agonist ED50” value in data set [5] is given as “Inactive at 120”.
On to `CC(C)=CCN1CCC2(C)c3cc(O)ccc3CC1C2C` (stereo not drawn) [pentazocine, reference compound], for which the Threshold irritation concentration in data set [1] is listed as 0.5%. The values for the ED50 in data set [2], in data set [3] (setting [7]) and in data set [3] (setting [8]) were 6.3 mg/kg, 51 mg/kg and 2.2 mg/kg, respectively. In data set [6], the “Potency relative to the compound of Example 1B in the tests for analgesia” value is reported as “significantly less potent”. The “Oral:Parenteral Potency Ratio” value in data set [3] is 23. For the same compound, in data set [4], the Unconsciousness result is “without unconsciousness”. In addition, the Convulsions result in data set [4] (single dose tested) was “induced convulsions”. Moreover, the “Tail-flick Agonist ED50” value in data set [5] is recorded as “Inactive at 120”.
